# In US12285406B1, “Method of treating cancer with a selenide” (priority 2024, dated 2025):
# Assays:
# [1] = system: human non-small cell lung cancer (A549); assay: Antitumor activity (growth inhibition, cytotoxic IC50) against A549; format: cell-based; conditions: for inhibition at 100 µg/mL: 100 μg/mL, read-out: growth inhibition percentage
# [2] = system: colorectal carcinoma (HCT116); assay: Antitumor activity (growth inhibition) against HCT116; format: cell-based; conditions: Homo sapiens, HCT-116, 100 μg/mL, read-out: growth inhibition percentage
# prostate cancer (PC3) = assay: Antitumor activity (growth inhibition) against PC3; format: cell-based; conditions: Homo sapiens, 100 μg/mL, read-out: growth inhibition percentage
# [3] = system: pharynx squamous carcinoma (FaDu); assay: Antitumor activity (growth inhibition, cytotoxic IC50) against FaDu; format: cell-based; conditions: Homo sapiens; for inhibition at 100 µg/mL: 100 μg/mL, read-out: growth inhibition percentage
# [4] = system: triple-negative breast cancer (MDA-MB-468); assay: Antitumor activity (growth inhibition, cytotoxic IC50) against MDA-MB-468; format: cell-based; conditions: Homo sapiens; for inhibition at 100 µg/mL: 100 μg/mL, read-out: growth inhibition percentage
# cervical cancer (HeLa) = assay: Antitumor activity (growth inhibition, cytotoxic IC50) against HeLa; format: cell-based; conditions: Homo sapiens; for inhibition at 100 µg/mL: 100 μg/mL, read-out: growth inhibition percentage
# [5] = system: human oral epithelial normal cell line (OEC); assay: Growth inhibition of normal cell line OEC; format: cell-based
# p53 = assay: Protein expression level in MDA-MB-468 cells: p53; format: cell-based, human; conditions: in comparison to the control (untreated) cells
# BAX = assay: Protein expression level in MDA-MB-468 cells: BAX; format: cell-based, human; conditions: in comparison to the control (untreated) cells
# Caspase 3 = assay: Protein expression level in MDA-MB-468 cells: Caspase 3; format: cell-based, human; conditions: in comparison to the control (untreated) cells
# Caspase 6 = assay: Protein expression level in MDA-MB-468 cells: Caspase 6; format: cell-based, human; conditions: in comparison to the control (untreated) cells
# Caspase 8 = assay: Protein expression level in MDA-MB-468 cells: Caspase 8; format: cell-based, human; conditions: in comparison to the control (untreated) cells
# Caspase 9 = assay: Protein expression level in MDA-MB-468 cells: Caspase 9; format: cell-based, human; conditions: in comparison to the control (untreated) cells
# BCL-2 = assay: Protein expression level in MDA-MB-468 cells: BCL-2; format: cell-based, human; conditions: compared to the control (untreated) cells
# MMP2 = assay: Protein expression level in MDA-MB-468 cells: MMP2; format: cell-based, human; conditions: compared to the control (untreated) cells
# MMP9 = assay: Protein expression level in MDA-MB-468 cells: MMP9; format: cell-based, human; conditions: compared to the control (untreated) cells
# COX-2 = assay: Protein expression level in MDA-MB-468 cells: COX-2; format: cell-based, human; conditions: compared to the control (untreated) cells
# IL-6 = assay: Protein expression level in MDA-MB-468 cells: IL-6; format: cell-based, human; conditions: compared to the control (untreated) cells
# IL-1β = assay: Protein expression level in MDA-MB-468 cells: IL-1β; format: cell-based, human; conditions: compared to the control (untreated) cells
# [6] = read-out: cytotoxic inhibitory concentration 50 (IC50)
compound,measurement,setting,value
"N#C[Se]CCCN1C(=O)c2ccccc2C1=O [DS128, 2-(3-selenocyanatopropyl) isoindoline-1,3-dione]",inhibition at 100 µg/mL,[1],77.7%
same,IC50,[1]; [6],5.4 µg/mL
same,inhibition at 100 µg/mL,[2],78.5%
same,inhibition at 100 µg/mL,prostate cancer (PC3),83.2%
same,inhibition at 100 µg/mL,[3],83.8%
same,IC50,[3]; [6],5.46 µg/mL
same,inhibition at 100 µg/mL,[4],86%
same,IC50,[4]; [6],4.33 µg/mL
same,inhibition at 100 µg/mL,cervical cancer (HeLa),75.1%
same,IC50,cervical cancer (HeLa); [6],5.36 µg/mL
same,growth inhibition percentage,[5],40.02%
same,upregulation of p53 protein,p53,1.77 times
same,upregulation of BAX protein,BAX,1.68 times
same,upregulation of Caspase 3 protein,Caspase 3,1.27 times
same,upregulation of Caspase 6 protein,Caspase 6,2.46 times
same,upregulation of Caspase 8 protein,Caspase 8,6.71 times
same,upregulation of Caspase 9 protein,Caspase 9,2.00 times
same,downregulation of BCL-2 protein,BCL-2,0.44 times
same,downregulation of MMP2 protein,MMP2,0.43 times
same,downregulation of MMP9 protein,MMP9,0.47 times
same,downregulation of COX-2,COX-2,0.48 times
same,downregulation of IL-6,IL-6,0.40 times
same,downregulation of IL-1β,IL-1β,0.42 times
"COc1cccc2c1C(=O)c1c(O)c3c(c(O)c1C2=O)C[C@@](O)(C(=O)CO)C[C@@H]3O[C@H]1C[C@H](N)[C@H](O)[C@H](C)O1 [doxorubicin, reference compound]",inhibition at 100 µg/mL,[1],86.4%
same,inhibition at 100 µg/mL,[2],71%
same,inhibition at 100 µg/mL,prostate cancer (PC3),89.9%
same,inhibition at 100 µg/mL,[3],92.9%
same,inhibition at 100 µg/mL,[4],96%
same,inhibition at 100 µg/mL,cervical cancer (HeLa),92.7%
same,growth inhibition percentage,[5],57.89%
